This note sets out measurements from patent US20210309669A1, “Heterocyclic Spiro Compounds As MAGL Inhibitors” (Pfizer Inc., priority 2018, published 2021).

A short description of series [1]: Dynamic vapor sorption (hygroscopicity). Type of series: physicochemical. Conditions: 25° C. The method, then:
(§1) An automated vapor sorption analyzer (VTI SGA-CX; VTI scientific) was used to measure the hygroscopicity of the anhydrate of Form I of the invention. The microbalance was calibrated using a 100 mg standard weight. The relative humidity sensor was calibrated at 5.0, 11.3, 32.8, 52.8, 75.3, and 84.3% RH (25° C.) using saturated salt solutions, as well as 80% RH (25° C.) using polyvinylpyrrolidone. Approximately 8-10 mg of the powder sample was placed in the platinum sample pan and dried at 3% relative humidity (RH) at 25° C. with a heating rate of 1° C. per minute. The attainment of equilibrium was assumed when the weight change of the sample was <0.001 wt % in 5 min or by a maximum equilibration time of 120 minutes. […] Again, the attainment of equilibrium was assumed when the weight change of the sample was <0.001 wt % in 5 min or by a maximum equilibration time of 120 minutes. The weight gain at the end of the sorption cycle (90% RH) was calculated on the basis of the dry weight.
as §1, with “Moisture/Water sorption and desorption studies were conducted on automated” for “An automated”, “analyzer (TA instruments Q5000 SA).” for “analyzer (VTI SGA-CX; VTI scientific) was used to measure the hygroscopicity of the anhydrate of Form I of the invention.”, “salt solutions.” for “salt solutions, as well as 80% RH (25° C.) using polyvinylpyrrolidone.”, “Approximately 10-20” for “Approximately 8-10”, “at ≤3%” for “at 3%”, “C.” for “C. with a heating rate of 1° C. per minute.”

The target of series [2] is T1, human recombinant FAAH (Homo sapiens, UniProt O00519).
T1 construct: purchased Cayman 10010183
T1 sequence (O00519 1-579): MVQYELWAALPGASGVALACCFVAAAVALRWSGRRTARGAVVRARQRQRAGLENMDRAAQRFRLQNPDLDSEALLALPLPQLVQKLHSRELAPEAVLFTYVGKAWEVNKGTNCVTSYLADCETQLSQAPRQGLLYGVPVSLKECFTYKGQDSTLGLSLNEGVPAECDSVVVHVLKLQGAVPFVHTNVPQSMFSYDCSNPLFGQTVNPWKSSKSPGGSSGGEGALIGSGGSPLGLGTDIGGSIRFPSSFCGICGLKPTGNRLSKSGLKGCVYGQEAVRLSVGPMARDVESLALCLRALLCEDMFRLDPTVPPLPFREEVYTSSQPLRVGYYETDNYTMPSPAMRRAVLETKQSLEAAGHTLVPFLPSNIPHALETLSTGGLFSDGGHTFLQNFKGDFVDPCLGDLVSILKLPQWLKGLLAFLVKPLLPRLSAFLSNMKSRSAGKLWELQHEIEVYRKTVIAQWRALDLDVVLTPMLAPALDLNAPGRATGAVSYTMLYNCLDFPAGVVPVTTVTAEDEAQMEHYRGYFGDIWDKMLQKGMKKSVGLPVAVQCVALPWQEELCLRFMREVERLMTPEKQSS
Nature of the series: FAAH inhibition enzymatic assay (Arachidonoyl-AMC substrate). Type of series: biochemical. Conditions: 30 minute incubation; geometric mean; read-out: FAAH (T = 30 min) IC50. The method, then:
Assessment of FAAH inhibition utilizes human recombinant FAAH and the fluorescent substrate, Arachidonoyl-AMC. 400 nL of a test compound at decreasing concentrations was spotted into a 384-well back plate (PerkinElmer, 6007279) using a Labcyte Echo, followed by addition of 10 μl of FAAH enzyme (Cayman 10010183) in assay buffer (50 mM Tris, pH 9.0, 1 mM EDTA, i.e. ethylenediaminetetraacetic acid). After a 30 minute incubation at room temperature, 10 μL of Arachidonyl-AMCA was added in assay buffer with 16% DMSO. […] The reaction was allowed to progress for 60 minutes, after which the plate was read on a Molecular Devices FlexStation reader at an Ex/Em of 355/460. Percent inhibitions were calculated based on controls wells containing either no compound (0% inhibition) or a control compound (e.g., an FAAH inhibitor whose activity is known or was previously reported in the literature, such as one with about 100% inhibition). IC50 values were generated based on a four parameter fit model using ABASE software from IDBS.

For series [3], the target named is T2, human recombinant Monoacylglycerol Lipase (Homo sapiens, UniProt Q99685).
T2 sequence (Q99685 1-303): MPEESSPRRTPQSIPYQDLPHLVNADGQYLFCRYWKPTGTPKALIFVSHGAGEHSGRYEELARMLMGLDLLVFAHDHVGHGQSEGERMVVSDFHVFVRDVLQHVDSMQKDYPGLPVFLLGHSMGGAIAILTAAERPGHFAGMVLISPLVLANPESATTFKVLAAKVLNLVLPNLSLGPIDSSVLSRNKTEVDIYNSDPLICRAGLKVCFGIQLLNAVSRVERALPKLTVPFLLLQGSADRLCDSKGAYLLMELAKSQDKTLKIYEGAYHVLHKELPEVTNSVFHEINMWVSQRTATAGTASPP
In words: MAGL inhibition enzymatic assay (7-HCA fluorogenic substrate). Type of series: biochemical. Conditions: geometric mean. As to the method: (§2) Assessment of MAGL inhibition utilizes human recombinant Monoacylglycerol Lipase and the fluorogenic substrate 7-hydroxycoumarinyl arachidonate (7-HCA, Biomol ST-502). 400 nL of a test compound at decreasing concentration (ranging from 150 μM down to 1.5 nM) was spotted into a 384-well back plate (PerkinElmer, 6007279) using a Labcyte Echo, followed by addition of 10 μL of MAGL enzyme in assay buffer (50 mM HEPES, pH 7.4, 100 mM NaCl, 5 mM MgCl2, 0.1% Triton X-100 and 25% glycerin). An equal volume of 7-HCA in assay buffer with 10% DMSO was added either immediately (T=0 min) or after a 30 minute incubation (T=30 min) to initiate the reaction. The final concentration of MAGL enzyme was […] and 7-HCA substrate was 5 μM. After these dilutions, the final concentration of the test compound ranged from 3 μM to 0.03 nM. The reaction was allowed to progress for 60 minutes, after which the plate was read at an Ex/Em of 340/465. Percent inhibitions were calculated based on control wells containing no compound (0% inhibition) and a control compound (e.g., a MAGL inhibitor whose activity is known or was previously reported in the literature, such as one with about 100% inhibition). IC50 values were generated based on a four parameter fit model using ABASE software from IDBS. See e.g., Wang, Y. et al., “A Fluorescence-Based Assay for Monoacylglycerol Lipase Compatible with Inhibitor Screening,” Assay and Drug Development Technologies, 2008, Vol. 6 (3) pp 387-393 (reporting an assay for measuring MAGL activity).

Series [4] deals with T2, human recombinant Monoacylglycerol Lipase. Nature of the series: MAGL inactivation (enzyme progress curves, kinact/KI). Format: biochemical. The following applies: geometric mean. As to the method:
as §2
To measure MAGL inactivation, the same protocol for the (T=0 min) MAGL inhibition IC50 assay was performed with data collected every minute to acquire enzyme progress curves at decreasing concentrations of compound.

Series [5] can be described thus: In vitro intrinsic clearance in human hepatocytes. Type of series: in vitro ADME. The following applies: 1 μM substrate, human hepatocytes 0.5 million viable cells per mL, 37° C. As to the method:
Test Compounds (Example 1-3 and Comparative-Compounds 1-4) were prepared as solutions in DMSO at 3 mM which were then diluted in media containing WEM. The final concentration of DMSO in the incubation was 0.03% (v/v). The in vitro half-life (t½) of each compound was determined in incubations containing substrate (1 μM), human hepatocytes (0.5 million viable cells per mL final concentration) in media containing WEM, 50 mM HEPES buffer (pH 7.4), and 26 mM sodium bicarbonate at 37° C. (all final concentrations) in a 96-well plate. The reaction mixture was pre-warmed at 37° C. for 30 min prior to the initiation of the incubation. The incubation was quenched with acetonitrile containing internal standards at the following time points: 0, 5, 15, 30, 60, 120, and 240 min (individual incubation plates per time point). The samples were vortexed followed by centrifugation. An aliquot of supernatant was transferred to a clean 96-well plate and analyzed by LC/MS-MS using multiple reaction monitoring. For control experiments, hepatocytes were omitted from the incubations.
The hepatocyte t½ (min) was obtained from a log-linear plot of the substrate depletion versus incubation time and was scaled to hepatic intrinsic clearance (CLint,app (μL/min/million cells) using the following equation: […]

The nature of series [6]: In vitro intrinsic clearance in human liver microsomes (HLM). Type of series: in vitro ADME. The following applies: pH 7.4, 1 μM substrate, NADPH, 37° C., read-out: HLM CLint, app. As to the method:
Test Compounds (Example 1-3 and Comparative-Compounds 1-4) were prepared as solutions in DMSO. The final concentration of DMSO in the incubation was <0.1% (v/v). […] (all final concentrations) in a 384-well plate. The reaction mixture was pre-warmed at 37° C. for 10 min prior to initiation of the incubation. The incubation was quenched with acetonitrile containing internal standards at the following time points: 1, 4, 7, 12, 20, 25, 45, and 60 min (individual incubation plates per time point) with a subsequent addition of water. The samples were vortexed followed by centrifugation and the supernatant was analyzed by LC/MS-MS using multiple reaction monitoring. For control experiments, NADPH was omitted from the incubations.
The microsomal t½ (min) was obtained from a log-linear plot of the substrate depletion versus incubation time and was scaled to hepatic intrinsic clearance (CLint,app (μL/min/mg protein) using the following equation: […]
On the technique in general: Liver microsomes are a subcellular fraction often used to study metabolism.

The mark [7] stands for this setting: 30 minute incubation before substrate, read-out: MAGL (T = 30 min) IC50.
Where [8] appears, read: substrate added immediately (T=0 min), read-out: MAGL (T = 0 min) IC50.

Molecules are shown by their SMILES. Like-named read-outs stand apart in the source and are kept apart here. A value given as a limit tells only on which side of the number the result lay.

On to `O=C(OC(C(F)(F)F)C(F)(F)F)N1CCC2(CC1)C[C@@H](NS(=O)(=O)CC1CC1)CO2` [Form I, 1,1,1,3,3,3-Hexafluoropropan-2-yl (3R)-3-{[(cyclopropylmethyl)sulfonyl]amino}-1-oxa-8-azaspiro[4.5]decane-8-carboxylate], for which the DVS weight gain in series [1] (0-60% RH) is reported as 0-60% RH, 25° C.: <0.1% weight gain; in series [1] (60% RH), 60% RH, 25° C.: <0.1% weight gain; in series [1] (75% RH) it was 75% RH, 25° C.: <0.1% weight gain; in series [1] (90% RH), 90% RH, 25° C.: <0.1% weight gain; in series [1] (at up to 90% RH), “less than 0.1%”.
What is called IC50 is the concentration that gives 50% inhibition. In the case of `O=C(OC(C(F)(F)F)C(F)(F)F)N1CCC2(CCC(NS(=O)(=O)CC3CC3)CO2)CC1` (single isomer, unassigned; ent-2) [Example 5, 1,1,1,3,3,3-Hexafluoropropan-2-yl 3-{[(cyclopropylmethyl)sulfonyl]amino}-1-oxa-9-azaspiro[5.5]undecane-9-carboxylate, ENT-2], the IC50 is greater than 30000 nM in series [2], 10.1 nM in series [3] (setting [7]) and 103 nM in series [3] (setting [8]). Besides, the “MAGL kinact/KI” value in series [4] is given as 6930 1/s per M.
As for `O=C(OC(C(F)(F)F)C(F)(F)F)N1CCC2(CC1)C[C@@H](NS(=O)(=O)C1CC1)CO2` [Form A, 1,1,1,3,3,3-hexafluoropropan-2-yl(3R)-3-[(cyclopropylsulfonyl)amino]-1-oxa-8-azaspiro[4.5]decane-8-carboxylate], the DVS weight gain in series [1] (0-60% RH) was 0-60% RH, 25° C.: <0.1% weight gain; in series [1] (60% RH), 60% RH, 25° C.: <0.1% weight gain; in series [1] (75% RH) it was 75% RH, 25° C.: <0.1% weight gain; in series [1] (90% RH) it was 90% RH, 25° C.: <0.1% weight gain; in series [1] (at up to 90% RH), “less than 0.1%”.
Consider `O=C(OC(C(F)(F)F)C(F)(F)F)N1CCC2(CCC(NS(=O)(=O)CC3CC3)CO2)CC1` (single isomer, unassigned; ent-1) [Example 4, 1,1,1,3,3,3-Hexafluoropropan-2-yl 3-{[(cyclopropylmethyl)sulfonyl]amino}-1-oxa-9-azaspiro[5.5]undecane-9-carboxylate, ENT-1], for which the results for the IC50 in series [2], in series [3] (setting [7]) and in series [3] (setting [8]) were greater than 30000 nM, 20 nM and 162 nM, respectively. In series [4], the “MAGL kinact/KI” value is listed as 3110 1/s per M.
Turning to `O=C(OC(C(F)(F)F)C(F)(F)F)N1CCC2(CC1)C[C@@H](NS(=O)(=O)c1ccccc1)CO2` [Comparative-Compound 4, 1,1,1,3,3,3-hexafluoropropan-2-yl (3R)-3-[(phenylsulfonyl)amino]-1-oxa-8-azaspiro[4.5]decane-8-carboxylate], the “HHEPs CLint, app” value in series [5] was determined as 27.5 μL/min/million. Besides, the microsomal CLint at 1 μM in series [6] stood at 30.4 µL/min/mg.
